According to US20030091998A1, “Association of beta2-adrenergic receptor haplotypes with drug response” (priority 2000, published 2003):

Tested on: asthma patients
Experiment: In vivo FEV1 (bronchodilator) response to albuterol in asthma patients, by β2AR haplotype pair
Set-up: species or system human
Experimental: The patients in the asthma cohort were enrolled from an outpatient facility as described in detail elsewhere (Yan, L., Galinsky, R. E., Bernstein, J. A., Liggett, S. B. & Weinshilboum, R. M. (1999) Pharmacogenetics in Press). […] Forced expiratory volume in 1 second (FEV1) and forced vital capacity (FVC) were determined in triplicate. The predicted values for these measurements were calculated based on standard algorithms (Morris, J. F., Koski, A. & Johnson, L. C. (1971) Am Rev Respir Dis 103, 57-67).
The association between changes in % predicted FEV1 and haplotype pair was assessed by fitting an analysis of covariance model (ANCOVA) with terms for haplotype pair, sex and baseline severity. P-values from pairwise comparisons by haplotype pair were adjusted for multiple comparisons by applying the Holm-Sidak step-down procedure (Ludbrook, J. (1998) Clin and Exp Pharmacology & Physiology 25, 1032-1037.). […] In addition, the African-American asthma patients were excluded from the analysis due to the low number of individuals in this population group. For the analysis of individual SNPs, a similar ANCOVA model was employed with a discrete term for SNP genotype, and terms for sex and baseline severity. The Holm-Sidak step-down procedure was used to adjust the p-values from the individual SNP analyses for the number of tests performed.
Pairwise tests were made while correcting for multiple comparisons. […] For this analysis, a similar ANCOVA model as above was utilized. […] Since 0, 1 or 2 copies of these two haplotypes are present in our population as haplotype pairs 2/2, 2/4 and 4/4, a potential gene dose effect can be assessed by regression analysis.

CC(C)(C)NCC(O)c1ccc(O)c(CO)c1 (centres unmarked) [albuterol]
change % FEV1 (change in % predicted FEV1) (Caucasian asthma patients with β2AR haplotype pair 4/4, spirometry before and 30 min after inhalation of 180 μg albuterol by nebulization): 8.53±1.78%
bronchodilator response to albuterol (asthmatic patients with β2AR haplotype pair 2/6): moderate bronchodilator response
bronchodilator response to albuterol (asthmatic patients with β2AR haplotype pairs 2/2 and 4/6): respond well
bronchodilator response to albuterol (asthmatic patients with β2AR haplotype pairs 2/4 and 4/4): little to no response
greater response of haplotype pair 2/2 than haplotype pair 4/4 (in vivo FEV1 response, individuals with haplotype pair 2/2 vs 4/4 (FIG. 5)): ~50%
